Results reported in patent US20250304540A1, “2-METHYL-2-THIAZOLINE SALT” (Myrodia Therapeutics Co., Ltd., priority 2022, published 2025).
Counter-ions that a name gives are not always drawn.

Legend:
Type in all cases: physicochemical
[1] = Solubility in phosphate buffered saline by visual observation; conditions: aqueous buffer, thermodynamic from solid, phosphate buffered saline (PBS pH 7.2-7.4), room temperature
Protocol: When 2-MT-NDSA salt (20 mg) was added to phosphate buffered saline (PBS pH 7.2-7.4, FUJIFILM Wako Pure Chemical Corporation 164-18541, 1 mL) at room temperature, the salt was dissolved easily. The 2-MT-NDSA salt was further added by […] to the solution. By visual observation to confirm dissolution, undissolved remainder was confirmed when the total amount reached 200 mg. Thus, the solubility under the present conditions was 100 mg/mL to 200 mg/mL.

[2] = Humidity stress test with XRPD analysis; conditions: unsealed vial, 7 days
Protocol: XRPD analyses were performed using a Panalytical Empyrean diffractometer equipped with a Cu X-ray tube and a PIXcel 1D-Medipix3 detector system. The samples were analyzed at ambient temperature in transmission mode and held between low density PVC films. The XRPD program was used (range 3-40° […], step size 0.013°, counting time 99 sec, about 22 min run time/counting time 49 sec, about 11 min run time/counting time 22 sec, about 5 min run time). Samples were spun at 60 rpm during data collection. XRPD patterns were sorted and manipulated using HighScore Plus 2.2c/v4.9 software.
A given amount of salt was charged into a vial and placed unsealed in a thermostatic tank at 40° C./75% relative humidity or ambient temperature for 7 days and XRPD analysis was performed.

[3] = Deliquescence by visual observation; conditions: relative humidity of about 75%, 25° C., 23 hr
Protocol: A petri dish containing 2-MT-NDSA salt was placed in a relative humidity of about 75%, and left standing in a thermostatic tank at 25° C. for 23 hr.

[4] = Stability in the solid state at 40° C., checked by 1H NMR; conditions: vial, heated to 40° C., left standing for three days
Protocol: 2-MT-NDSA salt was placed in a vial, heated to 40° C., and left standing for three days. […] Thus, it can be said that 2-MT·NDSA salt is stable in the solid state at 40° C. for 3 days (corresponding to 2 weeks at 25° C.).

solubility [1]: 100 to 200 mg/mL
physical stability post storage (XRPD) ([2]; 40° C./75% relative humidity): physically stable
physical stability post storage (XRPD) ([2]; ambient temperature): physically stable
deliquescence [3]: No deliquescence
stability in the solid state (1H NMR before and after) [4]: no change in the peaks was observed
SMILES: CC1=NCCS1 [2-MT-NDSA salt, monohydrate of a hemi-1,5-naphthalenedisulfonic acid salt of 2-methyl-2-thiazoline]
